In US8324258B2, “F1F0-ATPase inhibitors and related methods” (The Regents of the University of Michigan, priority 2007, dated 2012):

Tests used:
Ramos cells = assay: Cytotoxicity (cell death) in Ramos cells; format: cell-based; conditions: Ramos cells
Description: (§1) The compounds listed in Table 9 were tested for activity against F1F0-ATPase by measuring ATP synthesis and ATP hydrolysis. In addition, the compounds were assessed for cytotoxicity in Ramos cells Inhibition of ATP synthesis and hydrolysis by the F1F0-ATPase and cytotoxicity in Ramos cells was measured as described in K. M. Johnson et al. Chemistry & Biology 2005, 12, 485-496.

F1F0-ATPase [1] = biological target: T1, F1F0-ATPase (Bos taurus, UniProt P13621); assay: Inhibition of ATP synthesis by the F1F0-ATPase; format: biochemical; conditions: IC40: concentration for 40% inhibition
Description: as §1

F1F0-ATPase [2] = biological target: T1, F1F0-ATPase; assay: Inhibition of ATP hydrolysis by the F1F0-ATPase; format: biochemical; conditions: IC40: concentration for 40% inhibition
Description: as §1

Structure (SMILES)	EC50 (Ramos cells) [µM]	ATP Synthesis (IC40 μM) (F1F0-ATPase [1]) [µM]	ATP Hydrolysis (IC40 μM) (F1F0-ATPase [2]) [µM]
Cc1ccc(C(=O)N=C(NCCc2c[nH]cn2)Nc2ccc(-c3ccccc3)cc2)cc1 [II-3, (Z/E)-N-((2-(1H-imidazol-4-yl)ethylamino)(biphenyl-4-ylamino)methylene)-4-methylbenzamide]	< 10	>10	>10
O=C(N=C(NCCc1c[nH]cn1)Nc1ccc(-c2ccccc2)cc1)c1cccc(C(F)(F)F)c1 [II-4, (Z/E)-N-((2-(1H-imidazol-4-yl)ethylamino)(biphenyl-4-ylamino)methylene)-3-(trifluoromethyl)benzamide]	< 10	>10	>10
O=C(N=C(NCCc1c[nH]cn1)Nc1ccc(-c2ccccc2)cc1)c1ccc(C(F)(F)F)cc1 [II-5, (Z/E)-N-((2-(1H-imidazol-4-yl)ethylamino)(biphenyl-4-ylamino)methylene)-4-(trifluoromethyl)benzamide]	< 10	>10	>10
N#Cc1cccc(C(=O)N=C(NCCc2c[nH]cn2)Nc2ccc(-c3ccccc3)cc2)c1 [II-6, (Z/E)-N-((2-(1H-imidazol-4-yl)ethylamino)(biphenyl-4-ylamino)methylene)-3-cyanobenzamide]	> 30	>20	>30
N#Cc1ccc(C(=O)N=C(NCCc2c[nH]cn2)Nc2ccc(-c3ccccc3)cc2)cc1 [II-7, (Z/E)-N-((2-(1H-imidazol-4-yl)ethylamino)(biphenyl-4-ylamino)methylene)-4-cyanobenzamide]	> 30	>20	>10
O=C(N=C(NCCc1c[nH]cn1)Nc1ccc(-c2ccccc2)cc1)c1cccc(F)c1 [II-8, (Z/E)-N-((2-(1H-imidazol-4-yl)ethylamino)(biphenyl-4-ylamino)methylene)-3-fluorobenzamide]	< 10	>10	>10
O=C(N=C(NCCc1c[nH]cn1)Nc1ccc(-c2ccccc2)cc1)c1ccc(F)cc1 [II-9, (Z/E)-N-((2-(1H-imidazol-4-yl)ethylamino)(biphenyl-4-ylamino)methylene)-4-fluorobenzamide]	> 30	>20	>30
O=C(N=C(NCCc1c[nH]cn1)Nc1ccc(-c2ccccc2)cc1)c1cccc(Br)c1 [II-10, (Z/E)-N-((2-(1H-imidazol-4-yl)ethylamino)(biphenyl-4-ylamino)methylene)-3-bromobenzamide]	< 10	>10	>10
O=C(N=C(NCCc1c[nH]cn1)Nc1ccc(-c2ccccc2)cc1)c1ccc(Br)cc1 [II-11, (Z/E)-N-((2-(1H-imidazol-4-yl)ethylamino)(biphenyl-4-ylamino)methylene)-4-bromobenzamide]	> 30	>10	>20
O=C(N=C(NCCc1c[nH]cn1)Nc1ccc(-c2ccccc2)cc1)c1cccc([N+](=O)[O-])c1 [II-12, (Z/E)-N-((2-(1H-imidazol-4-yl)ethylamino)(biphenyl-4-ylamino)methylene)-3-nitrobenzamide]	> 30	>10	>10
O=C(N=C(NCCc1c[nH]cn1)Nc1ccc(-c2ccccc2)cc1)c1ccc([N+](=O)[O-])cc1 [II-13, (Z/E)-N-((2-(1H-imidazol-4-yl)ethylamino)(biphenyl-4-ylamino)methylene)-4-nitrobenzamide]	> 30	>20	>30
O=C(N=C(NCCc1c[nH]cn1)Nc1ccc(-c2ccccc2)cc1)c1ccc(Cl)c(Cl)c1 [II-16, (Z/E)-N-((2-(1H-imidazol-4-yl)ethylamino)(biphenyl-4-ylamino)methylene)-3,4-dichlorobenzamide]	< 10	<10	<10
O=C(N=C(NCCc1c[nH]cn1)Nc1ccccc1Br)c1cccc(Cl)c1 [III-2, (Z/E)-N-((2-(1H-imidazol-4-yl)ethylamino)(2-bromophenylamino)methylene)-3-chlorobenzamide]	> 20	<10	>20
O=C(N=C(NCCc1c[nH]cn1)Nc1cccc(Br)c1)c1cccc(Cl)c1 [III-3, (Z/E)-N-((2-(1H-imidazol-4-yl)ethylamino)(3-bromophenylamino)methylene)-3-chlorobenzamide]	> 10	<10	>10
O=C(N=C(NCCc1c[nH]cn1)Nc1cccc(-c2ccccc2)c1)c1cccc(Cl)c1 [III-6, (Z/E)-N-((2-(1H-imidazol-4-yl)ethylamino)(biphenyl-3-ylamino)methylene)-3-chlorobenzamide]	< 10	<10	>10
O=C(N=C(NCCc1c[nH]cn1)Nc1ccc(-c2ccccc2)cc1)c1cccc(Cl)c1 [III-7, (Z/E)-N-((2-(1H-imidazol-4-yl)ethylamino)(biphenyl-4-ylamino)methylene)-3-chlorobenzamide]	< 10	<10	>10
Cc1ccccc1NC(=NC(=O)c1cccc(Cl)c1)NCCc1c[nH]cn1 [III-8, (Z/E)-N-((2-(1H-imidazol-4-yl)ethylamino)(o-toluidino)methylene)-3-chlorobenzamide]	> 30	>10	>30
Cc1cccc(NC(=NC(=O)c2cccc(Cl)c2)NCCc2c[nH]cn2)c1 [III-9, (Z/E)-N-((2-(1H-imidazol-4-yl)ethylamino)(m-toluidino)methylene)-3-chlorobenzamide]	> 30	>10	>20
Cc1ccc(NC(=NC(=O)c2cccc(Cl)c2)NCCc2c[nH]cn2)cc1 [III-10, (Z/E)-N-((2-(1H-imidazol-4-yl)ethylamino)(p-toluidino)methylene)-3-chlorobenzamide]	> 10	>10	>20
COc1ccccc1NC(=NC(=O)c1cccc(Cl)c1)NCCc1c[nH]cn1 [III-11, (Z/E)-N-((2-(1H-imidazol-4-yl)ethylamino)(2-methoxyphenylamino)methylene)-3-chlorobenzamide]	> 30	>10	>30
COc1cccc(NC(=NC(=O)c2cccc(Cl)c2)NCCc2c[nH]cn2)c1 [III-12, (Z/E)-N-((2-(1H-imidazol-4-yl)ethylamino)(3-methoxyphenylamino)methylene)-3-chlorobenzamide]	> 30	>20	>30
COc1ccc(NC(=NC(=O)c2cccc(Cl)c2)NCCc2c[nH]cn2)cc1 [III-13, (Z/E)-N-((2-(1H-imidazol-4-yl)ethylamino)(4-methoxyphenylamino)methylene)-3-chlorobenzamide]	> 30	>10	>30
O=C(N=C(NCCc1c[nH]cn1)Nc1ccccc1F)c1cccc(Cl)c1 [III-14, (Z/E)-N-((2-(1H-imidazol-4-yl)ethylamino)(2-fluorophenylamino)methylene)-3-chlorobenzamide]	> 30	>20	>30
O=C(N=C(NCCc1c[nH]cn1)Nc1cccc(F)c1)c1cccc(Cl)c1 [III-15, (Z/E)-N-((2-(1H-imidazol-4-yl)ethylamino)(3-fluorophenylamino)methylene)-3-chlorobenzamide]	> 30	>20	>30
O=C(N=C(NCCc1c[nH]cn1)Nc1ccc(F)cc1)c1cccc(Cl)c1 [III-16, (Z/E)-N-((2-(1H-imidazol-4-yl)ethylamino)(4-fluorophenylamino)methylene)-3-chlorobenzamide]	> 30	>20	>30
O=C(N=C(NCCc1c[nH]cn1)Nc1ccccc1Cl)c1cccc(Cl)c1 [III-17, (Z/E)-N-((2-(1H-imidazol-4-yl)ethylamino)(2-chlorophenylamino)methylene)-3-chlorobenzamide]	> 30	>10	>20
O=C(N=C(NCCc1c[nH]cn1)Nc1cccc(Cl)c1)c1cccc(Cl)c1 [III-18, (Z/E)-N-((2-(1H-imidazol-4-yl)ethylamino)(3-chlorophenylamino)methylene)-3-chlorobenzamide]	> 10	>10	>20
O=C(N=C(NCCc1c[nH]cn1)Nc1ccc(Cl)cc1)c1cccc(Cl)c1 [III-19, (Z/E)-N-((2-(1H-imidazol-4-yl)ethylamino)(4-chlorophenylamino)methylene)-3-chlorobenzamide]	> 10	>10	>30
O=C(N=C(NCCc1c[nH]cn1)Nc1ccc(Br)cc1)c1cccc(Cl)c1 [III-20, (Z/E)-N-((2-(1H-imidazol-4-yl)ethylamino)(4-bromophenylamino)methylene)-3-chlorobenzamide]	> 10	>10	>10
N#Cc1ccc(-c2ccc(NC(=NC(=O)c3cccc(Cl)c3)NCCc3c[nH]cn3)cc2)cc1 [III-21, (Z/E)-N-((2-(1H-imidazol-4-yl)ethylamino)(4′-cyanobiphenyl-4-ylamino)methylene)-3-chlorobenzamide]	< 10	<10	>30
